Like-named read-outs stand apart in the source and are kept apart here.
Legend:
HCoV-HKU1 Mpro = HCoV-HKU1 Mpro (Human coronavirus HKU1, UniProt P0C6X2); test: HCoV-HKU1 Mpro enzymatic inhibition assay (fluorescence); format: biochemical
Experimental: (§1) The hCoV Mpro are cloned, expressed in E. coli and purified by WuXi AppTec Co., Ltd. The substrate are synthesized by Genscript Biotech.
(§2) Compounds are 3 fold serially diluted for 10 doses and added to an assay plate (384w format) using ECHO, in duplicate wells. The test concentration of test compounds is defined by sponsor. […] For no inhibition control (ZPE, zero percent effect), DMSO is added.
(§3) 25 μL of Mpro proteins are added to the assay plates containing compounds, respectively, using Multidrop. The compounds and Mpro proteins are pre-incubated at room temperature for 30 min. Then 5 µL of Mpro substrates are added to the related assay plates, respectively. Each activity testing point has a relevant background control to normalize the fluorescence interference of compound.
(§4) After 60 min incubation at 30° C., the fluorescence signal (RFU) is detected using a microplate reader M2e (SpectraMax) at Ex/Em=340 nm/490 nm.
(§5) The inhibition activity is calculated using the formula below, IC50 values will be calculated using the Inhibition % data.
(§6) Inhibition %=[(CPD−BGCPD)−(ZPE−BGZPE)/(HPE−BGHPE)−(ZPE−BGZPE)]×[…] • CPD: Signal of test compounds wells, containing compound+enzyme+substrate. • ZPE: Average of signals of zero percent effective control wells, containing enzyme+substrate, no compound. • HPE: Average of signals of hundred percent effect control wells, containing GC376+enzyme+substrate. • BG: Compound background control wells, containing compound+substrate, no enzyme
(§7) IC50 values of compounds are calculated with the GraphPad Prism software using the nonlinear regression model of log(inhibitor) vs. response—Variable slope (four parameters).

HCoV-NL63 Mpro = HCoV-NL63 Mpro (Human coronavirus NL63, UniProt P0C6X5); test: HCoV-NL63 Mpro enzymatic inhibition assay (fluorescence); format: biochemical
Experimental: as §1, §2, §3, §4, §5, §6, §7

HCoV-229E Mpro = HCoV-229E Mpro (Human coronavirus 229E, UniProt P0C6X1); test: HCoV-229E Mpro enzymatic inhibition assay (fluorescence); format: biochemical
Experimental: as §1, §2, §3, §4, §5, §6, §7

MERS Mpro = MERS Mpro (Middle East respiratory syndrome-related coronavirus, UniProt K9N7C7); test: biochemical; set-up: species or system MERS-CoV
SARS-CoV-1 Mpro = SARS-CoV-1 Mpro (Severe acute respiratory syndrome coronavirus, UniProt P0C6X7); test: biochemical
HCoV-OC43 Mpro = HCoV-OC43 Mpro (Human coronavirus OC43, UniProt P0C6X6); test: HCoV-OC43 Mpro enzymatic inhibition assay (fluorescence); format: biochemical
Experimental: as §1, §2, §3, §4, §5, §6, §7

SARS-CoV-2 Mpro = SARS-CoV-2 Mpro (Severe acute respiratory syndrome coronavirus 2, UniProt P0DTD1); test: SARS-CoV-2 Mpro enzymatic inhibition assay (fluorescence); format: biochemical
Experimental: as §1
Compounds are 3 fold serially diluted for 10 doses and added to an assay plate (384w format) using ECHO, in duplicate wells. The test concentration of test compounds is defined by sponsor.
25 μL of Mpro proteins are added to the assay plates containing compounds, respectively, using Multidrop. The compounds and Mpro proteins are pre-incubated at room temperature for 30 min. Then 5 µL of Mpro substrates are added to the related assay plates, respectively.
as §4, §5, §7

[1] = mean, 25 nM protein, 25 μM substrate, 30 min pre-incubation, 60 min at 30° C., read-out: Mpro_SARS-CoV-2 mean IC50

Chain of HCoV-HKU1 Mpro (P0C6X2 3335-3637 limits assumed): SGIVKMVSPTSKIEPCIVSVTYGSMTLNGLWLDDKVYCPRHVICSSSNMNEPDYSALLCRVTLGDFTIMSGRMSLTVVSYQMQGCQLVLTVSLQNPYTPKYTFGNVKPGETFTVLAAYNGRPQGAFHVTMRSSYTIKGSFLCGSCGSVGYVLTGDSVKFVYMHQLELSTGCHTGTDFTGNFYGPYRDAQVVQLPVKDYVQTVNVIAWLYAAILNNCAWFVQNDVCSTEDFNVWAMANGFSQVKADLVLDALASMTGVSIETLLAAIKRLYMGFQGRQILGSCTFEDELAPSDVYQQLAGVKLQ
Chain of HCoV-229E Mpro (P0C6X1 2966-3267 limits assumed): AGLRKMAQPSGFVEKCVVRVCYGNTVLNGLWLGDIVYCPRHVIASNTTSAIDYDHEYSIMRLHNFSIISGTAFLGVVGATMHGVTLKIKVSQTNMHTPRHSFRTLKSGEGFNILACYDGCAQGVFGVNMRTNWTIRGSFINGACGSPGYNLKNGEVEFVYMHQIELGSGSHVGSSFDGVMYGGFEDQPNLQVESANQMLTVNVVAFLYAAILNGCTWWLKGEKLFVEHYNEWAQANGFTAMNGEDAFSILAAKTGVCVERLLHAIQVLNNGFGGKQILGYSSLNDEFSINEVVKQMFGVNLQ
Chain of MERS Mpro (K9N7C7 3248-3553 limits assumed): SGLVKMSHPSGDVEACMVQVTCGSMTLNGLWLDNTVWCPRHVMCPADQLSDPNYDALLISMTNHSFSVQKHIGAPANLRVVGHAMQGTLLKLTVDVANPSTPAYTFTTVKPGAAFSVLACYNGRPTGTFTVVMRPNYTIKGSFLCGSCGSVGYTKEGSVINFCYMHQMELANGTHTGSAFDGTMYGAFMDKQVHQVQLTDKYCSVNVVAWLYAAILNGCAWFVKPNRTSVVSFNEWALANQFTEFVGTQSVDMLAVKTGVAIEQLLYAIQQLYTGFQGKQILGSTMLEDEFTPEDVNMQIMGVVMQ
Chain of HCoV-NL63 Mpro (P0C6X5 2940-3242 limits assumed): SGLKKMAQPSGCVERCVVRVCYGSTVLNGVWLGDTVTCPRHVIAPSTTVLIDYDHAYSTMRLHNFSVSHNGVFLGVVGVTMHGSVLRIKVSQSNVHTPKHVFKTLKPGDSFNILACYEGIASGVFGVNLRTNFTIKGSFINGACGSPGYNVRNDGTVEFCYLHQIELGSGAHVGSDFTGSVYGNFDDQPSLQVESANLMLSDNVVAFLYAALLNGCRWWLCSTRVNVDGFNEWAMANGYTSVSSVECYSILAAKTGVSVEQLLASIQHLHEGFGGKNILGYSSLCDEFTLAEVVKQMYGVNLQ
Chain of HCoV-OC43 Mpro (P0C6X6 3247-3549 limits assumed): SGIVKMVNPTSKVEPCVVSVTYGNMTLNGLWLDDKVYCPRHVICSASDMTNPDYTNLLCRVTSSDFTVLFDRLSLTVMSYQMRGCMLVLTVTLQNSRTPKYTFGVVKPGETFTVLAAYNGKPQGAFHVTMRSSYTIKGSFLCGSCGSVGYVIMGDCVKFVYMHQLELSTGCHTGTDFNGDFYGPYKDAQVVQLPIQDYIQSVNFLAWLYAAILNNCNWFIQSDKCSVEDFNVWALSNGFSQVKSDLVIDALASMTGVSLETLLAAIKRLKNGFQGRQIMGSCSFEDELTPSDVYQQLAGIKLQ

SMILES	IC50 (HCoV-HKU1 Mpro)	IC50 (HCoV-NL63 Mpro)	IC50 (HCoV-229E Mpro)	IC50 (MERS Mpro)	IC50 (SARS-CoV-1 Mpro)	IC50 (HCoV-OC43 Mpro)	IC50 (SARS-CoV-2 Mpro)	IC50 (SARS-CoV-2 Mpro; [1])
CC1(C)[C@@H]2[C@@H](C(=O)N[C@H](C=O)C[C@@H]3CCNC3=O)N(C(=O)CC3CCOCC3)C[C@@H]21 [Compound 86, (1R,2S,5S)-6,6-Dimethyl-N—((S)-1-oxo-3-((S)-2-oxopyrrolidin-3-yl)propan-2-yl)-3-(2-(tetrahydro-2H-pyran-4-yl)acetyl)-3-azabicyclo[3.1.0]hexane-2-carboxamide]	33.7 nM	78.8 nM	34.2 nM	318 nM	69.5 nM	52.5 nM	39.7 nM	–
Cn1c(C(=O)N2C[C@H]3[C@@H]([C@H]2C(=O)N[C@H](C=O)C[C@@H]2CCNC2=O)C3(C)C)cc2c(F)cccc21 [Compound 100, (1R,2S,5S)-3-(4-Fluoro-1-methyl-1H-indole-2-carbonyl)-6,6-dimethyl-N—((S)-1-oxo-3-((S)-2-oxopyrrolidin-3-yl)propan-2-yl)-3-azabicyclo[3.1.0]hexane-2-carboxamide]	94.4 nM	398 nM	106 nM	877 nM	92.5 nM	133 nM	54 nM	–
COc1cccc2cc(C(=O)N3C[C@H]4[C@@H]([C@H]3C(=O)N[C@H](C=O)C[C@@H]3CCNC3=O)C4(C)C)[nH]c12 [Compound 91, (1R,2S,5S)-3-(7-Methoxy-1H-indole-2-carbonyl)-6,6-dimethyl-N—((S)-1-oxo-3-((S)-2-oxopyrrolidin-3-yl)propan-2-yl)-3-azabicyclo[3.1.0]hexane-2-carboxamide]	61.1 nM	215 nM	92.9 nM	396 nM	83.3 nM	110 nM	–	43.9 nM
CC(C)(C(=O)N1C[C@H]2[C@@H]([C@H]1C(=O)N[C@H](C=O)C[C@@H]1CCNC1=O)C2(C)C)c1ccccc1 [Compound 48, (1R,2S,5S)-6,6-dimethyl-3-(2-methyl-2-phenylpropanoyl)-N—((S)-1-oxo-3-((S)-2-oxopyrrolidin-3-yl)propan-2-yl)-3-azabicyclo[3.1.0]hexane-2-carboxamide]	73.4 nM	376 nM	86.9 nM	484 nM	53.6 nM	164 nM	–	22.9 nM
CC1(C)[C@@H]2[C@@H](C(=O)N[C@H](C=O)C[C@@H]3CCNC3=O)N(C(=O)c3cc4c(C#N)cccc4[nH]3)C[C@@H]21 [Compound 59, (1R,2S,5S)-3-(4-Cyano-1H-indole-2-carbonyl)-6,6-dimethyl-N—((S)-1-oxo-3-((S)-2-oxopyrrolidin-3-yl)propan-2-yl)-3-azabicyclo[3.1.0]hexane-2-carboxamide]	22.9 nM	64.1 nM	42.6 nM	230 nM	83.4 nM	57.5 nM	–	26 nM
N#C[C@@H]1C[C@@H](C(=O)N[C@H](C=O)C[C@@H]2CCNC2=O)N(C(=O)c2cc3ccccc3[nH]2)C1 [Compound 112, (2S,4R)-4-Cyano-1-(1H-indole-2-carbonyl)-N—((S)-1-oxo-3-((S)-2-oxopyrrolidin-3-yl)propan-2-yl)pyrrolidine-2-carboxamide]	120 nM	503 nM	149 nM	2760 nM	244 nM	390 nM	84.6 nM	–
CC1(C)[C@@H]2[C@@H](C(=O)N[C@H](C=O)C[C@@H]3CCNC3=O)N(C(=O)c3cc4sccc4[nH]3)C[C@@H]21 [Compound 30, (1R,2S,5S)-6,6-dimethyl-N—((S)-1-oxo-3-((S)-2-oxopyrrolidin-3-yl)propan-2-yl)-3-(4H-thieno[3,2-b]pyrrole-5-carbonyl)-3-azabicyclo[3.1.0]hexane-2-carboxamide]	26 nM	49.7 nM	24.5 nM	239 nM	51.1 nM	43.8 nM	18.6 nM	–
O=C[C@H](C[C@@H]1CCNC1=O)NC(=O)[C@@H]1C[C@@H](C2CCCCC2)CN1C(=O)c1cc2cccc(F)c2[nH]1 [Compound 71, (2S,4S)-4-cyclohexyl-1-(7-fluoro-1H-indole-2-carbonyl)-N—((S)-1-oxo-3-((S)-2-oxopyrrolidin-3-yl)propan-2-yl)pyrrolidine-2-carboxamide]	34.9 nM	414 nM	53.5 nM	1420 nM	95.6 nM	133 nM	30.4 nM	–
O=C[C@H](C[C@@H]1CCNC1=O)NC(=O)[C@@H]1C[C@@H]2CCCC[C@@H]2N1C(=O)c1cc2ccccc2[nH]1 [Compound 113, (2S,3aS,7aS)-1-(1H-Indole-2-carbonyl)-N—((S)-1-oxo-3-((S)-2-oxopyrrolidin-3-yl)propan-2-yl)octahydro-1H-indole-2-carboxamide]	28.4 nM	35.7 nM	33.2 nM	581 nM	339 nM	79.3 nM	91.6 nM	–
O=C[C@H](C[C@@H]1CCNC1=O)NC(=O)[C@@H]1C[C@@H](F)CN1C(=O)c1cc2ccccc2[nH]1 [Compound 98, (2S,4R)-4-fluoro-1-(1H-Indole-2-carbonyl)-N—((S)-1-oxo-3-((S)-2-oxopyrrolidin-3-yl)propan-2-yl)pyrrolidine-2-carboxamide]	7 nM	105 nM	57 nM	518 nM	206 nM	81 nM	51.1 nM	–
CC1(C)[C@@H]2[C@@H](C(=O)N[C@H](C=O)C[C@@H]3CCNC3=O)N(C(=O)CC3CCCCC3(F)F)C[C@@H]21 (stereo partly drawn) [Compound 64, (1R,2S,5S)-3-(2-(2,2-Difluorocyclohexyl)acetyl)-6,6-dimethyl-N—((S)-1-oxo-3-((S)-2-oxopyrrolidin-3-yl)propan-2-yl)-3-azabicyclo[3.1.0]hexane-2-carboxamide]	46.5 nM	105 nM	53.2 nM	224 nM	46.6 nM	65.8 nM	27 nM	–
COc1cccc2[nH]c(C(=O)N3CC4(CC4)C[C@H]3C(=O)N[C@H](C=O)C[C@@H]3CCNC3=O)cc12 [Compound 31, (S)-5-(4-Methoxy-1H-indole-2-carbonyl)-N—((S)-1-oxo-3-((S)-2-oxopyrrolidin-3-yl)propan-2-yl)-5-azaspiro[2.4]heptane-6-carboxamide]	14.2 nM	49.3 nM	31.7 nM	188 nM	34 nM	22.2 nM	18.9 nM	–
CC1(C)[C@@H]2[C@@H](C(=O)N[C@H](C#N)C[C@@H]3CCNC3=O)N(C(=O)C3(c4ccccc4)CC3)C[C@@H]21 [Compound 135, (1R,2S,5S)—N—((S)-1-Cyano-2-((S)-2-oxopyrrolidin-3-yl)ethyl)-6,6-dimethyl-3-(1-phenylcyclopropanecarbonyl)-3-azabicyclo[3.1.0]hexane-2-carboxamide]	766 nM	11800 nM	3460 nM	4540 nM	571 nM	1870 nM	468 nM	–
CC1CCC(CC(=O)N2C[C@H]3[C@@H]([C@H]2C(=O)N[C@H](C=O)C[C@@H]2CCNC2=O)C3(C)C)CC1 (stereo partly drawn) [Compound 52, (1R,2S,5S)-6,6-dimethyl-3-(2-(4-methylcyclohexyl)acetyl)-N—((S)-1-oxo-3-((S)-2-oxopyrrolidin-3-yl)propan-2-yl)-3-azabicyclo[3.1.0]hexane-2-carboxamide]	25 nM	61.3 nM	31.4 nM	214 nM	32.6 nM	52 nM	24.6 nM	–
O=C[C@H](C[C@@H]1CCNC1=O)NC(=O)[C@@H]1CC2(CCC2)CN1C(=O)c1cc2ccccc2[nH]1 [Compound 10, (S)-6-(1H-indole-2-carbonyl)-N—((S)-1-oxo-3-((S)-2-oxopyrrolidin-3-yl)propan-2-yl)-6-azaspiro[3.4]octane-7-carboxamide]	17.7 nM	45 nM	32.3 nM	194 nM	45.3 nM	35.8 nM	12.3 nM	–
